Measurements published in patent publication US8124121B2, “Flavors, flavor modifiers, tastants, taste enhancers, umami or sweet tastants, and/or enhancers and use thereof” (Senomyx, Inc., priority 2003, dated 2012).

What follows are compounds tested against T1, hT1R1/hT1R3 umami receptor (Homo sapiens, UniProt Q7RTX0+Q7RTX1) (assay: Umami taste enhancement activity assay (EC50 ratio vs. MSG)). Details: Table A; compound @ 0.3 uM.
T1 construct: expressed in transfected cells; host or cells: HEK293 derivative stably expressing Gα15, clone I-17, expression induced with mifepristone
T1 sequence (Q7RTX1 21-841): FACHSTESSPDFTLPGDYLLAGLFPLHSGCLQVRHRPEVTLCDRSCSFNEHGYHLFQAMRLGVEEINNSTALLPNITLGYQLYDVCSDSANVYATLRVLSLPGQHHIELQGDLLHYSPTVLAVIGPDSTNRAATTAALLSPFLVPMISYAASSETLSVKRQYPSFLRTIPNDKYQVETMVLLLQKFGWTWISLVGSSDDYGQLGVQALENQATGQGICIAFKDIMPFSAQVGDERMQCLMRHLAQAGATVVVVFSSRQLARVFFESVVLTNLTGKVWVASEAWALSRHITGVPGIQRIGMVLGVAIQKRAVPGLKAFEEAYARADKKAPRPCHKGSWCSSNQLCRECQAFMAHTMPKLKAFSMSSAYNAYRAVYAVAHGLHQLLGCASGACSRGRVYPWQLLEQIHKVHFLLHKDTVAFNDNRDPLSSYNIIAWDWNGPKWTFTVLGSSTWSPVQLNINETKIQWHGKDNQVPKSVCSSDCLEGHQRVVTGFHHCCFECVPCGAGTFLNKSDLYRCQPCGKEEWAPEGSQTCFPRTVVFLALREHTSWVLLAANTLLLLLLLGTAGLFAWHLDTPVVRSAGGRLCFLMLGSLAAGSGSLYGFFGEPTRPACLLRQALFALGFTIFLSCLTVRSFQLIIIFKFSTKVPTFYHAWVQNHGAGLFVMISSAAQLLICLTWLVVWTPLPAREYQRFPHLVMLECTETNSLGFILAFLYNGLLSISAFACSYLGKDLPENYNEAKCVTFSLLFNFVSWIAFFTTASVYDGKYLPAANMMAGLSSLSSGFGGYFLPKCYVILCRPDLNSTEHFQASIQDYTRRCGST
T1 sequence (Q7RTX0 21-852): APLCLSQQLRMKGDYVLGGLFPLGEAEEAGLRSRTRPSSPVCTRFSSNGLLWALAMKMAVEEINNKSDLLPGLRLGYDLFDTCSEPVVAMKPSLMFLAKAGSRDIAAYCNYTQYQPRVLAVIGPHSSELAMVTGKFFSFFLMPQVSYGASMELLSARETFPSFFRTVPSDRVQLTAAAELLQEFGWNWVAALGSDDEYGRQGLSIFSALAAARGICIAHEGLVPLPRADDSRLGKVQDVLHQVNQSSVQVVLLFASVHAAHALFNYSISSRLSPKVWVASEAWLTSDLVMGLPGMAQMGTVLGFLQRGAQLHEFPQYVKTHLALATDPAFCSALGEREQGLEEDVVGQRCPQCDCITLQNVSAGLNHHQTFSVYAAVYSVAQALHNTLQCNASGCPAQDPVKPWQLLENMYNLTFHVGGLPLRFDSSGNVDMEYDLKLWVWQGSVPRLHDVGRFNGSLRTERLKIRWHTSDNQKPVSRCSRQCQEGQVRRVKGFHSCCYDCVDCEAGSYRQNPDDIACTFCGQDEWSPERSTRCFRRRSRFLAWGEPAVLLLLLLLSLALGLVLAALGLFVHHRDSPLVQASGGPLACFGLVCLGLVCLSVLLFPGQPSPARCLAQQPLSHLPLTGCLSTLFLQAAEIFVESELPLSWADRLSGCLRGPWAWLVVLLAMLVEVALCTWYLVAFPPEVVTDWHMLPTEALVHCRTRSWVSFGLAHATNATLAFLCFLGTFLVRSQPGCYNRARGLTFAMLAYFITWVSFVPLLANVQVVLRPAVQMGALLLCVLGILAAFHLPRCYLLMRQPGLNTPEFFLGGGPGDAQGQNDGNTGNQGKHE
Assay type: cell-based
Protocol: A series of measurements of the dose response is run in solutions comprising MSG alone, then a second dose response is run with MSG in combination with predetermined amounts of a candidate compound of Formula (I) at the same time.
Typical compound concentrations tested were 30 μM, 10 μM, 3 μM, 1 μM, 0.3 μM, 0.1 μM and 0.03 μM. The relative efficacy of compounds of Formula (I) at enhancing the receptor was determined by calculating the magnitude of a shift in the EC50 for monosodium glutamate. Enhancement was defined as a ratio (EC50R) corresponding to the EC50 of monosodium glutamate, determined in the absence of the test compound, divided by the EC50 of monosodium glutamate, determined in the presence of the test compound.
Stated alternatively, “EC50 ratio” as compared to MSG is calculated based on the following definitions: EC50 Ratio vs. MSG=EC50 (MSG)/EC50(MSG+[Compound]) • wherein “[compound]” refers to the concentration of the compound of Formula (I) used to elicit (or enhance or potentiate) the MSG dose response.

| Ec50 ratio (vs. MSG) | SMILES |
| --- | --- |
| 6.5 | CCC(COC)NC(=O)c1cc2cc(Cl)ccc2o1 (stereo not drawn) [Example A11, 5-chloro-N-(1-methoxybutan-2-yl)benzofuran-2-carboxamide] |

Same assay, conditions: Table A; compound @ 1 uM

| Ec50 ratio (vs. MSG) | SMILES |
| --- | --- |
| 3.8 | COc1cccc(C(=O)NC2CCCc3ccccc32)c1O (stereo not drawn) [Example A87, 2-hydroxy-3-methoxy-N-(1,2,3,4-tetrahydronaphthalen-1-yl)benzamide] |
| 4.51 | CCCC(CCC)NC(=O)c1cc2cc(OC)ccc2o1 [Example A10, N-(heptan-4-yl)-5-methoxybenzofuran-2-carboxamide] |
| 2.3 | Cc1ccc(C(=O)NC2CCCc3ccccc32)s1 (stereo not drawn) [Example A39, 5-Methyl-thiophene-2-carboxylic acid (1,2,3,4-tetrahydro-naphthalen-1-yl)-amide] |
| 5.7 | COc1cccc(C(=O)N[C@H]2CCCc3ccccc32)c1O [Example A93, (S)-2-hydroxy-3-methoxy-N-(1,2,3,4-tetrahydronaphthalen-1-yl)benzamide] |

Same assay, conditions: Table C; compound Con. 0.3 uM

| Ec50 ratio (vs MSG) | SMILES |
| --- | --- |
| 2.1 | CCOc1ccc(NC(=O)NC2CCCCC2C)cc1 (stereo not drawn) [Example C10, 1-(4-ethoxyphenyl)-3-(2-methylcyclohexyl)urea] |

Same assay, conditions: Table D; compound @ 0.3 uM

| Ec50 ratio (vs. MSG) | SMILES |
| --- | --- |
| 2.7 | CCOc1ccc(/C=C/C(=O)NC(C)CC)cc1 (stereo not drawn) [Example D13, (E)-N-sec-butyl-3-(4-ethoxyphenyl)acrylamide] |

Same assay, conditions: Table D; compound @ 1 uM

| Ec50 ratio (vs. MSG) | SMILES |
| --- | --- |
| 6.3 | CCCC(CCC)NC(=O)/C=C/c1cccs1 [Example D6, N-(1-Propyl-butyl)-3-thiophen-2-yl-acrylamide] |

Same assay, conditions: Table E; compound concentration not given

| Umami EC50 ratio | SMILES |
| --- | --- |
| 10.66 | CC1CCCCC1NC(=O)c1ccc(Cl)c(Cl)c1 (stereo not drawn) [Example E54, 3,4-dichloro-N-(2-methylcyclohexyl)benzamide] |

Same assay, conditions: compound present at 0.01 μM

| EC50 ratio (enhanced the effectiveness of monosodium glutamate) | SMILES |
| --- | --- |
| 13.18 | COC(=O)[C@@H](CC(C)C)NC(=O)c1ccc(OC)c(Cl)c1 [Example 62, (R)-methyl 2-(3-chloro-4-methoxybenzamido)-4-methylpentanoate] |

Same assay, conditions: compound present at 0.03 μM

| EC50 ratio (enhanced the effectiveness of monosodium glutamate) | SMILES |
| --- | --- |
| 3.68 | CCCC(CCC)NC(=O)c1ccc2c(c1)OC(C)O2 (stereo not drawn) [Example 18, N-(heptan-4-yl)-2-methylbenzo[d][1,3]dioxole-5-carboxamide] |

Same assay, conditions: compound present at 0.3 μM

| EC50 ratio (enhanced the effectiveness of monosodium glutamate) | SMILES |
| --- | --- |
| 2.4 | CCCC(CCC)NC(=O)/C=C/c1ccc(OC)c(OC)c1 [Example 87, 3-(3,4-Dimethoxy-phenyl)-N-(1-propyl-butyl)-acrylamide] |
| 2.7 | COc1ccc(C(=O)N[C@H](C)c2ccccc2)cc1Cl [Example 63, (R)-3-chloro-4-methoxy-N-(1-phenylethyl)benzamide] |
| 7 | Cc1cc(C(=O)NC(C)CCc2ccccc2)ccc1O (stereo not drawn) [Example 111, 4-Hydroxy-3-methyl-N-(1-methyl-3-phenyl-propyl)-benzamide] |
| 2.6 | CCCC(CCC)NC(=O)c1cc2ccccc2o1 [Example 25, Benzofuran-2-carboxylic(1-propylbutyl)amide] |
| 5.33 | O=C(NC1CCc2ccccc21)c1ccc2c(c1)OCO2 (stereo not drawn) [Example 118, Benzo[1,3]dioxole-5-carboxylic Acid indan-1-ylamide] |
| 6.28 | CCC(CC)NC(=O)c1ccc(OC)c(Cl)c1 [Example 61, 3-chloro-4-methoxy-N-(pentan-3-yl)benzamide] |
| 18.85 | COc1ccccc1CNC(=O)C(=O)NCCc1ccccn1 [Example 122, N-(2-Methoxy-benzyl)-N′-(2-pyridin-2-yl-ethyl)-oxalamide] |
| 7.61 | CCCC(CCC)NC(=O)Nc1ccc(OC)cc1OC [Example 159, 1-(2,4-dimethoxyphenyl)-3-(heptan-4-yl)urea] |
| 7.8 | O=C(NC1CCCc2ccccc21)c1ccc2c(c1)OCO2 (stereo not drawn) [Example 7, N-(1,2,3,4-tetrahydronaphthalen-1-yl)benzo[d][1,3]dioxole-5-carboxamide] |

Same assay, conditions: compound present at 1 μM

| EC50 ratio (enhanced the effectiveness of monosodium glutamate) | SMILES |
| --- | --- |
| 4.2 | CCOc1ccc(NC(=O)NCCc2ccccn2)cc1 [Example 160, 1-(4-ethoxyphenyl)-3-(2-(pyridine-2-yl)ethyl)urea] |
| 8.4 | CC1CCCC(NC(=O)c2ccc3c(c2)OCO3)C1C (stereo not drawn) [Example 4, N-(2,3-dimethylcyclohexyl)benzo[d][1,3]dioxole-5-carboxamide] |
| 4.95 | CCCC(CCC)NC(=O)Nc1ccccc1Cl [Example 158] |
| 3.3 | Cc1ccc(CCNC(=O)c2occc2C)cc1 [Example 120, 3-methyl-N-(p-tolylethyl)furan-2-carboxamide] |
| 4.52 | CCCC(CCC)NC(=O)c1ccc(OC)cc1C#N [Example 97, 2-cyano-N-(heptan-4-yl)-4-methoxybenzamide] |
| 2.87 | CCCC(CCC)NC(=O)c1ccc2c(c1)OC(F)(F)O2 [Example 22, 2,2-difluoro-N-(heptan-4-yl)benzo[d][1,3]dioxole-5-carboxamide] |

Same assay, conditions: compound present at 3 μM

| EC50 ratio (enhanced the effectiveness of monosodium glutamate) | SMILES |
| --- | --- |
| 4.1 | CCCC(COC(C)=O)NC(=O)c1ccc2c(c1)OCO2 (stereo not drawn) [Example 14, 2-(benzo[d][1,3]dioxole-6-carboxamido)pentyl Acetate] |
| 7.9 | COc1ccc(CNC(=O)c2ccnn2C)c(OC)c1 [Example 110, 2-Methyl-2H-pyrazole-3-carboxylic Acid 2,4-dimethoxy-benzylamide] |
| 5.8 | COc1ccc(CNC(=O)c2sccc2C)c(OC)c1 [Example 108, 3-Methyl-thiophene-2-carboxylic Acid 2,4-dimethoxy-benzylamide] |
| 2.2 | CCCC(CCC)NC(=O)c1ccc2c(c1)OC(C(C)C)O2 (stereo not drawn) [Example 21, N-(heptan-4-yl)-2-isopropylbenzo[d][1,3]dioxole-5-carboxamide] |
| 8.5 | O=C(NCc1ccc(OC(F)(F)F)cc1)c1ccsc1 [Example 107, Thiophene-3-carboxylic acid 4-trifluoromethoxy-benzylamide] |
| 2.5 | CCCC(CCC)NC(=O)c1ccc2c(c1)OC(CC(=O)OCC)O2 (stereo not drawn) [Example 19, Ethyl 2-(5-(heptan-4-ylcarbamoyl)benzo[d][1,3]dioxol-2-yl)acetate] |
| 8 | COc1ccc(CNC(=O)c2ccc(-c3ccccn3)s2)c(OC)c1 [Example 109, 5-Pyridin-2-yl-thiophene-2-carboxylic Acid 2,4-dimethoxy-benzylamide] |
